Assay: Compound was evaluated for its inhibitory activity against Serine protease chymotrypsin

Ki [µM] | SMILES
7.55 | CC1CNc2c(cccc2S(=O)(=O)N[C@@H](Cc2nc3ccccc3s2)C(=O)N2CCC(CCO)CC2)C1 (stereo partly drawn) [3-Methyl-1,2,3,4-tetrahydro-quinoline-8-sulfonic acid {(S)-1-benzothiazol-2-ylmethyl-2-[4-(2-hydroxy-ethyl)-piperidin-1-yl]-2-oxo-ethyl}-amide]
4.91 | CCC1CCN(C(=O)C(Cc2nc3ccccc3s2)NS(=O)(=O)c2cccc3c2NCC(C)(C)C3)CC1 (configuration not stated) [MD805 Analogue]

— BindingDB's records for doi:10.1016/s0960-894x(00)00282-1 (Novartis Horsham Research Centre, 2000)
